Source: patent US20170280720A1, “ARGININE […] INHIBITORS AND USES THEREOF” (EPIZYME, INC., priority 2014, published 2017)

The molecules below were run against T1, human PRMT1 (Homo sapiens, UniProt Q99873) (assay: PRMT1 biochemical assay (3H-SAM Flashplate, peptide substrate)). Conditions: read-out: PRMT1_ IC50.
T1 construct: GST-tagged PRMT1; made in house; host or cells: High Five insect cells (baculovirus, pFastBacI)
How it was run: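 FLAG-tagged full-length human PRMT1 (0.5 nM, GST-tagged, insect-cell expressed) preincubated 30 min at RT with compound, then biotinylated histone H4 36-50 peptide (20 nM) plus 200 nM 3H-SAM and 1.5 uM SAM in Bicine pH 7.6, 2% DMSO. 3H-methylated peptide captured on streptavidin Flashplate; IC50 from 3/4-parameter fit.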

T1 sequence (Q99873 with tags, fused parts or gaps): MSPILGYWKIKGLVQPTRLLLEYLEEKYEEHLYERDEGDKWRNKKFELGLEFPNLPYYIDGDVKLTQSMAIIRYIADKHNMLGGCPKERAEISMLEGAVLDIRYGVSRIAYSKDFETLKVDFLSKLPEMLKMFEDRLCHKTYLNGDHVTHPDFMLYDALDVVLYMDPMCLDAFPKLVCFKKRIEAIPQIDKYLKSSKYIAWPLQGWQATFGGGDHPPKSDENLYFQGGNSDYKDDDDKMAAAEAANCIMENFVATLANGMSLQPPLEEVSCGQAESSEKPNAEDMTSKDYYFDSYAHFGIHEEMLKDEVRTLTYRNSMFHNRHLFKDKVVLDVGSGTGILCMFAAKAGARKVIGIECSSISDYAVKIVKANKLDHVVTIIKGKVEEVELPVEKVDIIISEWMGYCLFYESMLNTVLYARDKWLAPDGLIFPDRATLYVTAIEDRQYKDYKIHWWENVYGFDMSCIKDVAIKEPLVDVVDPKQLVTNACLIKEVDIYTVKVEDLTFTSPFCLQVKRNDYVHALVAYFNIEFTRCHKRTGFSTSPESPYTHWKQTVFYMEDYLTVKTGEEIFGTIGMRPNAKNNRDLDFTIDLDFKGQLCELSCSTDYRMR

**Q.** How did the IC50 turn out when `CNCCN(C)Cc1cccc(-c2cc(C(=O)NCc3ccccn3)c3cnn(C(C)C)c3n2)c1` [Compound 98] was run?
**A.** 456 nM

**Q.** `CNCCN(C)Cc1cccc(-c2ccc3cnn(C(C)C)c3n2)c1` [Compound 73] was tested. Which IC50 did it give?
**A.** 306 nM

**Q.** Which IC50 does the source give for `CNCCN(C)Cc1cccc(-c2cc(NC3COC3)c3cnn(C(C)C)c3n2)c1` [Compound 58] here?
**A.** 239 nM

**Q.** `CNCCN(C)Cc1cccc(-c2nc(N(C)C3CCOCC3)c3cnn(C4CC4)c3n2)c1` [Compound 109, N1-(3-(1-cyclopropyl-4-(methyl(tetrahydro-2H-pyran-4-yl)amino)-1H-pyrazolo[3,4-d]pyrimidin-6-yl)benzyl)-N1,N2-dimethylethane-1,2-diamine] was tested. Which IC50 did it give?
**A.** 570 nM

**Q.** For `CNCCN(C)Cc1cccc(-c2cc(N3CCC(C(F)(F)F)CC3)c3cnn(C(C)C)c3n2)c1` [Compound 50], which IC50 is on record?
**A.** 223 nM

**Q.** Which IC50 does the source give for `CNCCN(C)Cc1cccc(-c2cc(C(=O)NCCCCC(=O)NCC3CCOCC3)c3cnn(C(C)C)c3n2)c1` [Compound 118] here?
**A.** 668 nM

**Q.** Which IC50 does the source give for `CCNc1cc(-c2cccc(CN(C)CCNC)c2)nc2c1cnn2C(C)C` [Compound 72] here?
**A.** 303 nM

**Q.** `COc1cccc(Cn2cnc3ccc(-c4ccc(CN(C)CCN)cc4)cc32)c1` [Compound 8] was tested. Which IC50 did it give?
**A.** 47 nM

**Q.** Which IC50 does the source give for `CC(C)n1ncc2c(NC(=O)OCc3ccccc3)cc(-c3cccc(CN(C)CCN)c3)nc21` [Compound 84] here?
**A.** 387 nM

**Q.** With `CNCCN(C)Cc1cccc(-c2cnc3c(c2)c(C2CC2)nn3CC2CCOCC2)c1` [Compound 4] as the molecule, how does the IC50 read?
**A.** 34.8 nM

**Q.** For `CNCCN(C)Cc1cccc(-c2cc(N(C)C3CC3)c3cnn(C(C)C)c3n2)c1` [Compound 95], which IC50 is on record?
**A.** 451 nM

**Q.** With `CNCCN(C)Cc1cccc(-c2cc(N3CCC3)c3cnn(C(C)C)c3n2)c1` [Compound 79] as the molecule, how does the IC50 read?
**A.** 341 nM

**Q.** With `CNCCN(C)Cc1cccc(-c2cc(-c3ccoc3)c3cnn(C(C)C)c3n2)c1` [Compound 67] as the molecule, how does the IC50 read?
**A.** 275 nM

**Q.** For `CNCCN(C)Cc1cccc(-c2cc(C(=O)NCCCCCC(=O)NCc3ccn(C)n3)c3cnn(C(C)C)c3n2)c1` [Compound 117], which IC50 is on record?
**A.** 642 nM

**Q.** For `CNCCN(C)Cc1cccc(-c2cc(C(=O)NC3CCOCC3)c3cnn(C4CC4)c3n2)c1` [Compound 87], which IC50 is on record?
**A.** 412 nM

**Q.** How did the IC50 turn out when `CC(C)n1ncc2c(C(=O)N(C)[C@@H](C)c3ccccc3)cc(-c3cccc(CN(C)CCN)c3)cc21` [Compound 3] was run?
**A.** 26.7 nM

**Q.** With `CNCCN(C)Cc1cccc(-c2cc(C(=O)NCCCCC(=O)NCc3ccn(C)n3)c3cnn(C(C)C)c3n2)c1` [Compound 122] as the molecule, how does the IC50 read?
**A.** 725 nM

**Q.** For `Cc1ccccc1Cn1cnc2ccc(-c3ccc(CNCCN)cc3)cc21` [Compound 82], which IC50 is on record?
**A.** 375 nM

**Q.** How did the IC50 turn out when `CNCCN(C)Cc1cccc(-c2cc(NC(=O)N(C)C)c3cnn(C(C)C)c3n2)c1` [Compound 123] was run?
**A.** 766 nM

**Q.** `CNCCN(C)Cc1cccc(-c2cc(C(=O)NCCCC(=O)NCC3CCOCC3)c3cnn(C(C)C)c3n2)c1` [Compound 60] was tested. Which IC50 did it give?
**A.** 248 nM

**Q.** For `CNCCN(C)Cc1cccc(-c2cc(NC(=O)NC(C)C)c3cnn(C(C)C)c3n2)c1` [Compound 85], which IC50 is on record?
**A.** 391 nM

**Q.** How did the IC50 turn out when `CNCCN(C)Cc1cccc(-c2nc(NC3CC3)c3cnn(C4CC4)c3n2)c1` [Compound 114] was run?
**A.** 617 nM

**Q.** With `CNCCN(C)Cc1cccc(-c2cc(C(=O)NCCCCCC(=O)NCC3CCOCC3)c3cnn(C(C)C)c3n2)c1` [Compound 112] as the molecule, how does the IC50 read?
**A.** 588 nM
